The source of these data is patent US20240083885A1, “COMPOSITIONS AND METHODS FOR INHIBITING M PRO PROTEASE ACTIVITY AND FOR PREVENTING AND TREATING SARS-COV-2 INFECTION” (priority 2020, published 2024).

Data set [1] deals with SARS-CoV-2. Description: microbe, parasite or virus in culture. Format: cell-based. The following applies: Caco2-hACE2 cells; read-out: antiviral EC50 against SARS-CoV-2 in Caco2-hACE2 cells.
Another data set concerns trypsin. Put plainly: Host protease FRET-based enzymatic assay: trypsin. It is filed as biochemical. The following applies: read-out: inhibition of trypsin (IC50).
Data set [2] has as its system SARS-CoV-2. Description: microbe, parasite or virus in culture. The conditions noted are these: read-out: antiviral EC50 against SARS-CoV-2 in Vero E6 cells. It is filed as cell-based.
Another data set has as its target caspase-3 (Homo sapiens (Human), UniProt P42574). Put plainly: Host protease FRET-based enzymatic assay: caspase-3. Format: biochemical. The following applies: read-out: inhibition of caspase-3 (IC50). Here is the method:
(§1) Enzymatic reactions against host proteases (Calpain I, Cathepisn K, Cathespsin L, Caspase-3 and Trypisn) were carried out as previously described (see, Xia, Z.; et al., ACS Pharmacol. Transl. Sci. 2021). Cathepsin B assay reaction was carried out as follows: Cathepsin B (catalog no. CTB-H5222) was diluted into 100 nM final concentration in a buffer containing 20 mM sodium acetate pH5.5, 1 mM EDTA and 2 mM DTT and the mixture was incubated for 30 min at 30° C. Activated Cathepsin B was further diluted to 500 pm in the reaction buffer (100 mM MES pH6.0, 1 mM EDTA, 2 mM DTT and 0.01% TWEEN 20).

For data set [3], the target named is T1, calpain I (Homo sapiens (Human), UniProt P07384). The following applies: read-out: Additional off targets: Calpain I IC50; cited from earlier work.
Another data set deals with cathepsin K (Homo sapiens (Human), UniProt P43235). Format: biochemical.
Data set [4] addresses T2, Cathepsin L (Homo sapiens (Human), UniProt P07711). The following applies: read-out: Cathepsin L IC50; cited from earlier work.
Data set [5] deals with T2, Cathepsin L. Put plainly: Host protease FRET-based enzymatic assay: cathepsin L. It is filed as biochemical. Here is the method:
The cathepsin L enzymatic assay was carried out as follows: human liver cathepsin L (EMD Millipore 219402) was activated by incubating at reaction buffer (20 mM sodium acetate, 1 mM EDTA and 5 mM DTT pH5.5) for 30 min at 30° C. Upon activation, the assay was assembled in 96-well plates with 100 μl of 300 pM cathepsin L protein in cathepsin L reaction buffer. Then 1 μl testing compound at various concentrations was added to each well and incubated at 30° C. for 30 min. The enzymatic reaction was initiated by adding 1 μl of 100 μM FRET substrate Z-Phe-Arg-AMC (the final substrate concentration is about 1 μM). The reaction was monitored in a Cytation 5 image reader with filters for excitation at 360/40 nm and emission at 460/40 nm at 30° C. for 1 hr. The IC50 values were calculated as described in above section.
as §1

In data set [6] the target is T1, calpain I. Put plainly: Host protease FRET-based enzymatic assay: calpain I. It is filed as biochemical. Here is the method:
as §1

The target in another data set is Cathepsin B (Homo sapiens (Human), UniProt P07858). Put plainly: Host protease FRET-based enzymatic assay: cathepsin B. Format: biochemical. Here is the method:
as §1

Where two headings read alike, the source gives them in different places.

T2 sequence (P07711 114-333 limits assumed): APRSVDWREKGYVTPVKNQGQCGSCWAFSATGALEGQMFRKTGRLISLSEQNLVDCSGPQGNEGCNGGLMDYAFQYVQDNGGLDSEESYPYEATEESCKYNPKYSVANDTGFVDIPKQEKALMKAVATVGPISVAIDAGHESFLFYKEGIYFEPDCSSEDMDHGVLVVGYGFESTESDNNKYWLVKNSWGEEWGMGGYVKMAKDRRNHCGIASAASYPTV
Sequence of cathepsin K (P43235 115-329 limits assumed): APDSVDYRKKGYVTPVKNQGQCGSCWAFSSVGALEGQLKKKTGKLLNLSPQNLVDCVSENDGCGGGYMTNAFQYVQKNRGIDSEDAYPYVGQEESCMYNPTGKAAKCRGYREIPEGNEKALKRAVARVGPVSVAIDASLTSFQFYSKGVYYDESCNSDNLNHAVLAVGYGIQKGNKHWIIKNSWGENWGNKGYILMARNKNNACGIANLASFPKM

In the case of `CC(C)C[C@H](NC(=O)OCc1ccccc1)C(=O)N[C@@H](CC1CCNC1=O)C(O)S(=O)(=O)[O-].[Na+]` (some centres unmarked) [GC-376, reference compound], the EC50 in the data set on SARS-CoV-2 [1] stood at 2900 nM; in the data set with SARS-CoV-2 [2] it was 1510 nM. Besides, the IC50 in the data set on trypsin was […]; on caspase-3, […]; on calpain I [3] it was 74 nM; at Cathepsin L [4], 0.99 nM. Further, in the data set with Vero E6 cells, the half-maximal cytotoxic concentration (CC50) was over 125000 nM. Further, on cathepsin K, the “inhibition of cathepsin K” value is reported as “potent inhibition”. Besides, the “inhibition of cathepsin L (IC50)” value on Cathepsin L [5] is given as “potent inhibition”. Besides, at calpain I [6], the “inhibition of calpain I” value is given as “potent inhibition”. Besides, the “inhibition of cathepsin B” value against Cathepsin B was “potent inhibition”.

In general, EC50 refers to the midpoint of the concentration-response curve. As usually defined, the IC50 is the concentration that gives 50% inhibition. As usually defined, the CC50 is the concentration that lowers cell viability or growth by half. A lower CC50 goes with greater toxicity to the cells.
